# In patent publication US11338007B2, “Combination formulation of three antiviral compounds” (priority 2016, dated 2022):
# What was measured:
# [1] = Food effect (high calorie/high-fat meals) on pharmacokinetics in human subjects (Table 28); assay type: in vivo; settings: tablets 400/100/100 mg; high calorie/high-fat meal
# Protocol: The effect of food (high calorie/high-fat meals) on the pharmacokinetics of sofosbuvir/velpatasvir SSD/voxilaprevir SSD tablets (400/100/100 mg). […] As a result, sofosbuvir/velpatasvir SSD/voxilaprevir SSD tablets are administered with food.
# [2] = Photostability of tablet cores and film-coated tablets per ICH Q1B (Table 12); assay type: physicochemical
# Protocol: Tablet cores and film-coated tablets were evaluated per ICH Q1B guidelines with a total of illumination of more than 1.2 million-lux hours and a total irradiance of more than 200 W·hr/m^2.
# [3] = Tablet dissolution, 1.0% w/v CTAB in 190 mM acetate buffer pH 4.0, USP Type II, 75 rpm; assay type: physicochemical
# [4] = Stress studies: stability of tablets made with stressed VEL SSD/VOX SSD (water, residual solvent, peroxide, reprocessing, potency; Tables 16-21); assay type: physicochemical; settings: for LS / Total Imp./Deg.: SSD water content study
# Protocol: The impact of the following stressors on the physical and chemical stability of the sofosbuvir/velpatasvir SSD/voxilaprevir SSD tablets were evaluated:
# (i) Voxilaprevir SSD and velpatasvir SSD, and sofosbuvir/velpatasvir SSD/voxilaprevir SSD tablet water content;
# (ii) Copovidone peroxide content in velpatasvir SSD and in voxilaprevir SSD (iii) Reprocessed velpatasvir SSD and voxilaprevir SSD;
# (iv) Voxilaprevir SSD and velpatasvir SSD potency (varying the ratio of velpatasvir or voxilaprevir to copovidone); and
# (v) Seeding sofosbuvir/velpatasvir SSD/voxilaprevir SSD tablets with crystalline voxilaprevir Form VIII and Form X drug substances.
# [5] = film-coating 0% weight gain, Exposed to Light
# [6] = film-coating 2.1% weight gain, Exposed to Light
# [7] = film-coating 2.1% weight gain, Protected from Light
# [8] = film-coating 3.4% weight gain, Exposed to Light
# [9] = film-coating 3.4% weight gain, Protected from Light
# [10] = film-coating 4.1% weight gain, Exposed to Light
# [11] = film-coating 4.1% weight gain, Protected from Light
# [12] = film-coating 5.4% weight gain, Protected from Light
# [13] = open (no desiccant), 40° C./75% RH, 4 weeks
# [14] = tablets from SSDs with copovidone peroxides 544 ppm (VEL SSD), 655 ppm (VOX SSD), Initial, time 0
# [15] = tablets from SSDs with copovidone peroxides 544 ppm (VEL SSD), 655 ppm (VOX SSD), closed, 1 g desiccant, 25° C./60% RH, 12 weeks
structure (smiles),measurement,setting,value
"CC(C)OC(=O)C(C)N[P@](=O)(OC[C@H]1O[C@@H](n2ccc(=O)[nH]c2=O)[C@](C)(F)[C@@H]1O)Oc1ccccc1 (stereo in doubt) [sofosbuvir, (S)-isopropyl 2-(((S)-(((2R,3R,4R,5R)-5-(2,4-dioxo-3,4-dihydropyrimidin-1(2H)-yl)-4-fluoro-3-hydroxy-4-methyltetrahydrofuran-2-yl)methoxy)(phenoxy)phosphoryl)amino)propanoate]",effect of food on plasma exposure,[1],does not substantially alter
same,LS,[2]; [5],101.5%
same,Total Imp./Deg. Products,[2]; [5],0.0%
same,Total Imp./Deg. Products,"[2]; film-coating 0% weight gain, Protected from Light",0.0%
same,LS,[2]; [6],101.7%
same,Total Imp./Deg. Products,[2]; [6],0.0%
same,LS,[2]; [7],101.2%
same,Total Imp./Deg. Products,[2]; [7],0.0%
same,LS,[2]; [8],100.6%
same,Total Imp./Deg. Products,[2]; [8],0.0%
same,LS,[2]; [9],101.8%
same,Total Imp./Deg. Products,[2]; [9],0.0%
same,LS,[2]; [10],102.0%
same,Total Imp./Deg. Products,[2]; [10],0.0%
same,LS,[2]; [11],101.2%
same,Total Imp./Deg. Products,[2]; [11],0.0%
same,Total Imp./Deg. Products,"[2]; film-coating 5.4% weight gain, Exposed to Light",0.0%
same,LS,[2]; [12],101.0%
same,Total Imp./Deg. Products,[2]; [12],0.0%
same,level of degradation products,[2]; tablets film-coated to weight gains 2.1 to 5.4%,0.0%
same,loss after exposure to light,[2]; uncoated tablet cores,no change
same,Dissolved at 30 min,"[3]; Lot A (14 ct), 25° C./60% RH Closed, 1 month",98%
same,Dissolved at 30 min,"[3]; Lot A (14 ct), 25° C./60% RH Closed, 3 months",103%
same,Dissolved at 30 min,"[3]; Lot A (14 ct), 25° C./60% RH Closed, 6 months",103%
same,Dissolved at 30 min,"[3]; Lot A (14 ct), 40° C./75% RH Closed, 1 month",100%
same,Dissolved at 30 min,"[3]; Lot A (14 ct), 40° C./75% RH Closed, 3 months",100%
same,Dissolved at 30 min,"[3]; Lot A (14 ct), 40° C./75% RH Closed, 6 months",100%
same,Dissolved at 30 min,"[3]; Lot A (14 ct), 40° C./75% RH Open, 1 month",98%
same,Dissolved at 30 min,"[3]; Lot A (14 ct), 40° C./75% RH Open, 3 months",101%
same,Dissolved at 30 min,"[3]; Lot A (14 ct), 40° C./75% RH Open, 6 months",100%
same,Dissolved at 30 min,"[3]; Lot A (14 ct), Initial",103%
same,Dissolved at 30 min,"[3]; Lot B (28 ct), 25° C./60% RH Closed, 1 month",102%
same,Dissolved at 30 min,"[3]; Lot B (28 ct), 25° C./60% RH Closed, 3 months",100%
same,Dissolved at 30 min,"[3]; Lot B (28 ct), 25° C./60% RH Closed, 6 months",102%
same,Dissolved at 30 min,"[3]; Lot B (28 ct), 40° C./75% RH Closed, 1 month",97%
same,Dissolved at 30 min,"[3]; Lot B (28 ct), 40° C./75% RH Closed, 3 months",99%
same,Dissolved at 30 min,"[3]; Lot B (28 ct), 40° C./75% RH Closed, 6 months",99%
same,Dissolved at 30 min,"[3]; Lot B (28 ct), Initial",103%
same,total impurities/degradation products,"[4]; SSD potency study, tablet Lots A-D, all conditions",0.0%
same,LS,[4]; Initial,100.5%
same,Total Imp./Deg.,[4]; Initial,0.0%
same,LS,[4]; [13],101.2%
same,Total Imp./Deg.,[4]; [13],0.0%
same,LS (%),"[4]; tablets Lot A (super-potent VEL SSD, super-potent VOX SSD), Initial, time 0",100.1%
same,LS (%),"[4]; tablets Lot A (super-potent VEL SSD, super-potent VOX SSD), closed, 1 g desiccant, 25° C./60% RH, 12 weeks",99.0%
same,LS (%),"[4]; tablets Lot A (super-potent VEL SSD, super-potent VOX SSD), closed, 1 g desiccant, 40° C./75% RH, 4 weeks",99.9%
same,LS (%),"[4]; tablets Lot A (super-potent VEL SSD, super-potent VOX SSD), closed, 1 g desiccant, 40° C./75% RH, 12 weeks",99.8%
same,LS (%),"[4]; tablets Lot A (super-potent VEL SSD, super-potent VOX SSD), open, without cap, 40° C./75% RH, 4 weeks",100.3%
same,LS (%),"[4]; tablets Lot B (sub-potent VEL SSD, sub-potent VOX SSD), Initial, time 0",99.9%
same,LS (%),"[4]; tablets Lot B (sub-potent VEL SSD, sub-potent VOX SSD), closed, 1 g desiccant, 25° C./60% RH, 12 weeks",99.4%
same,LS (%),"[4]; tablets Lot B (sub-potent VEL SSD, sub-potent VOX SSD), closed, 1 g desiccant, 40° C./75% RH, 4 weeks",99.8%
same,LS (%),"[4]; tablets Lot B (sub-potent VEL SSD, sub-potent VOX SSD), closed, 1 g desiccant, 40° C./75% RH, 12 weeks",98.7%
same,LS (%),"[4]; tablets Lot B (sub-potent VEL SSD, sub-potent VOX SSD), open, without cap, 40° C./75% RH, 4 weeks",100.1%
same,LS (%),"[4]; tablets Lot C (sub-potent VEL SSD, super-potent VOX SSD), Initial, time 0",99.5%
same,LS (%),"[4]; tablets Lot C (sub-potent VEL SSD, super-potent VOX SSD), closed, 1 g desiccant, 25° C./60% RH, 12 weeks",99.6%
same,LS (%),"[4]; tablets Lot C (sub-potent VEL SSD, super-potent VOX SSD), closed, 1 g desiccant, 40° C./75% RH, 4 weeks",99.6%
same,LS (%),"[4]; tablets Lot C (sub-potent VEL SSD, super-potent VOX SSD), closed, 1 g desiccant, 40° C./75% RH, 12 weeks",99.1%
same,LS (%),"[4]; tablets Lot C (sub-potent VEL SSD, super-potent VOX SSD), open, without cap, 40° C./75% RH, 4 weeks",99.4%
same,LS (%),"[4]; tablets Lot D (super-potent VEL SSD, sub-potent VOX SSD), Initial, time 0",100.0%
same,LS (%),"[4]; tablets Lot D (super-potent VEL SSD, sub-potent VOX SSD), closed, 1 g desiccant, 25° C./60% RH, 12 weeks",99.5%
same,LS (%),"[4]; tablets Lot D (super-potent VEL SSD, sub-potent VOX SSD), closed, 1 g desiccant, 40° C./75% RH, 4 weeks",100.1%
same,LS (%),"[4]; tablets Lot D (super-potent VEL SSD, sub-potent VOX SSD), closed, 1 g desiccant, 40° C./75% RH, 12 weeks",98.9%
same,LS (%),"[4]; tablets Lot D (super-potent VEL SSD, sub-potent VOX SSD), open, without cap, 40° C./75% RH, 4 weeks",99.8%
same,total impurities/degradation products,[4]; tablets from SSDs with copovidone 544 ppm (VEL SSD) and 655 ppm (VOX SSD) peroxides,0.0%
same,LS (%),[4]; [14],100.0%
same,Total Imp./Deg. (%),[4]; [14],0.0%
same,LS (%),[4]; [15],99.3%
same,Total Imp./Deg. (%),[4]; [15],0.0%
same,LS (%),"[4]; tablets from SSDs with copovidone peroxides 544 ppm (VEL SSD), 655 ppm (VOX SSD), closed, 1 g desiccant, 40° C./75% RH, 4 weeks",99.3%
